Like-named read-outs stand apart in the source and are kept apart here. Blank lines part the entries; values can stand above or below the compound they belong to.
Assays:
Test in all cases: biochemical
Parameters in all cases: Eurofins DiscoverX kinase panel, competitive binding assay at 1 uM, percent of DMSO control
Details in all cases: competitive binding, percent of DMSO control
[1] = biological target: NEK4 (Homo sapiens, UniProt P51957)
How it was run: (§1)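 Competitive binding assay across a 96-kinase panel with KIF18A compounds at 1 µM; values given as percentage of control (POC), single experiment.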

[2] = biological target: DDR1 (Homo sapiens, UniProt Q08345)
Chain of DDR1 (Q08345 whole entry): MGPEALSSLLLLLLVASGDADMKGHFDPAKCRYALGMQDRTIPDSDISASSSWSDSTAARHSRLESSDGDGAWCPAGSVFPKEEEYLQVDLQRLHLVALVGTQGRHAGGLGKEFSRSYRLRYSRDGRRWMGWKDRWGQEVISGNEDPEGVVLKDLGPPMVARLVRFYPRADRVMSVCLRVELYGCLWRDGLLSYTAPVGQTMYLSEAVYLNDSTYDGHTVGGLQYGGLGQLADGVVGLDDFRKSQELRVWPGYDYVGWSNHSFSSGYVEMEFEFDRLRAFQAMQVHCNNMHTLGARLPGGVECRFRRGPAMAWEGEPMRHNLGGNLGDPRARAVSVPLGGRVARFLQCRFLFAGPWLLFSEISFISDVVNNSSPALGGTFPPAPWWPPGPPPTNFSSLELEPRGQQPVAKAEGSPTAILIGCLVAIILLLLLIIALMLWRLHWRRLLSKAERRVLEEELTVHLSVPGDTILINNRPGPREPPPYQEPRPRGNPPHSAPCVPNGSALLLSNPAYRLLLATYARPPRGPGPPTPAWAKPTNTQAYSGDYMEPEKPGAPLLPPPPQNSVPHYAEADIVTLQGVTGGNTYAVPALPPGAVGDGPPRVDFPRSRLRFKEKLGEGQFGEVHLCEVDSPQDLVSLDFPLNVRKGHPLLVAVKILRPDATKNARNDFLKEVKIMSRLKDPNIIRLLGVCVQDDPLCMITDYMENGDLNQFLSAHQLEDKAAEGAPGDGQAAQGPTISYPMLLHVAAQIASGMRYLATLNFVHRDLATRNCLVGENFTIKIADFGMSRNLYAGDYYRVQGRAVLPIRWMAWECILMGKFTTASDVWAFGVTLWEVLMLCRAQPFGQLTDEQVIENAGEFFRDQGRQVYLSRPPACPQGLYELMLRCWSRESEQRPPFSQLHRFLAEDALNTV
How it was run: as §1

[3] = biological target: PIM1 (Homo sapiens, UniProt P11309)
Chain of PIM1 (P11309 whole entry): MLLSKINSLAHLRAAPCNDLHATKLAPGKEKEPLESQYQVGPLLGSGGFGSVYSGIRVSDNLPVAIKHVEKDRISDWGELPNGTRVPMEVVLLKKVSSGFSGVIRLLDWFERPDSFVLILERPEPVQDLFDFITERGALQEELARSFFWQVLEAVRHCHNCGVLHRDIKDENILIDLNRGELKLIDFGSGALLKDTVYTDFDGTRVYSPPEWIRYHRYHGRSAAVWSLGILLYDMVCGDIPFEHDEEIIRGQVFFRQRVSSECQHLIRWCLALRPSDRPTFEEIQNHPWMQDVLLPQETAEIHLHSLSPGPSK
How it was run: as §1

[4] = biological target: T1, TBK1 (Homo sapiens, UniProt Q9UHD2)
T1 sequence (Q9UHD2 1-729): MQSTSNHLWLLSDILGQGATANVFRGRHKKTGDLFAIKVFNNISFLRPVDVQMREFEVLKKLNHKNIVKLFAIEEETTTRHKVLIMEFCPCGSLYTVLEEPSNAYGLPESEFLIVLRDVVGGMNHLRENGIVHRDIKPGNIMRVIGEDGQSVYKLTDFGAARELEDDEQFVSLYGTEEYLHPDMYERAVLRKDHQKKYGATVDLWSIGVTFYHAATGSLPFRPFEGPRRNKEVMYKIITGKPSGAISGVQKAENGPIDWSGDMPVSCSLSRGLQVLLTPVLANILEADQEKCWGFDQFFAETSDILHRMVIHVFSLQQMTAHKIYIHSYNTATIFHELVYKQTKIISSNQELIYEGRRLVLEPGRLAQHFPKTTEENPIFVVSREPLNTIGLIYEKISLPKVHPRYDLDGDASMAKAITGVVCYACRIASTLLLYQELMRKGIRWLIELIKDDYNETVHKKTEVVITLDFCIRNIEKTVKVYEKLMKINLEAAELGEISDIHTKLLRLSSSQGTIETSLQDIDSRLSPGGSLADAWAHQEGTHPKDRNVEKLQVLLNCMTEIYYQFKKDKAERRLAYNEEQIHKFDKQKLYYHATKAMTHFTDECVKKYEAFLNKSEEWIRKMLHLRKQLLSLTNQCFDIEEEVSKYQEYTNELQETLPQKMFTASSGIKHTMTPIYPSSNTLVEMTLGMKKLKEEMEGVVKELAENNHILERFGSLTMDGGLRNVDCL
How it was run: as §1

[5] = read-out: Kinome Profiling performed by Eurofins DiscoverX / AM-1882, 1.0 µM / POC
[6] = read-out: Kinome Profiling performed by Eurofins DiscoverX / AM-5308, 1.0 µM / POC
[7] = read-out: Kinome Profiling performed by Eurofins DiscoverX / AM-0277, 1.0 µM / POC

Chain of NEK4 (P51957 whole entry): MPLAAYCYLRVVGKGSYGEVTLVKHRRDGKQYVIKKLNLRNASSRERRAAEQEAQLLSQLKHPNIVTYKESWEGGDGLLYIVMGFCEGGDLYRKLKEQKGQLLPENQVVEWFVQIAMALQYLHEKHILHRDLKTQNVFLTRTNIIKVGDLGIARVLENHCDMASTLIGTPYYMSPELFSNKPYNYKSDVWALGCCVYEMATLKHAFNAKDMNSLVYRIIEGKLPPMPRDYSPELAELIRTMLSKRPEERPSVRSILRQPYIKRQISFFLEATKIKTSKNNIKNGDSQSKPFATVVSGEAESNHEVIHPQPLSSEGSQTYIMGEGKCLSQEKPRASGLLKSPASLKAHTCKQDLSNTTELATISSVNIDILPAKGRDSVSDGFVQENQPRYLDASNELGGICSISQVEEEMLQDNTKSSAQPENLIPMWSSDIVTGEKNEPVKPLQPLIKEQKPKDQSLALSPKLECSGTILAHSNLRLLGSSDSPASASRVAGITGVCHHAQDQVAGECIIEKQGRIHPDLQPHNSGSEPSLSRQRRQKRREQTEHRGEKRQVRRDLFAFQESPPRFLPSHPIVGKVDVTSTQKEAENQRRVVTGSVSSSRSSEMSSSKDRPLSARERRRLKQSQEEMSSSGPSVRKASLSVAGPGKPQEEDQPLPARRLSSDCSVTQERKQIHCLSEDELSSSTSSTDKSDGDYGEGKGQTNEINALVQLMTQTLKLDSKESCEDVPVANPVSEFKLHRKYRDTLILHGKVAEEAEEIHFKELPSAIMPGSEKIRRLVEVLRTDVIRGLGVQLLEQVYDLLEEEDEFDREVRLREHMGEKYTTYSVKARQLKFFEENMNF

remaining activity at 1 µM [1, 5]: 89% | remaining activity at 1 µM [2, 5]: 97% | remaining activity at 1 µM [3, 5]: 88.5% | remaining activity at 1 µM [4, 5]: 82%
SMILES: CC(C)(C)NS(=O)(=O)c1cccc(NC(=O)c2ccc(S(=O)(=O)NC(C)(C)C)cc2N2CCC3(CC2)CC3)c1 [AM-1882]

remaining activity at 1 µM [1, 6]: 100% | remaining activity at 1 µM [2, 6]: 100% | remaining activity at 1 µM [3, 6]: 91% | remaining activity at 1 µM [4, 6]: 100%
SMILES: C[C@@H]1CN(c2cccc(NC(=O)c3ccc(NS(=O)(=O)CCO)cc3N3CCC4(CC3)CC4)n2)CCO1 [AM-5308]

remaining activity at 1 µM [1, 7]: 100% | remaining activity at 1 µM [2, 7]: 95% | remaining activity at 1 µM [3, 7]: 100% | remaining activity at 1 µM [4, 7]: 87%
SMILES: CC(C)(CO)Nc1ccc(C(=O)Nc2cccc(S(=O)(=O)C3CCCC3)c2)c(N2CCC3(CC2)CC3)n1 [AM-0277]

Reference: PMC10824666 (Nature Cancer, 2023)
